Results taken from EP1247803A2, “Indolinone compounds suitable for modulation of protein kinases” (Sugen, Inc., priority 1996, dated 1998).

Experiments:
PDGF-R = PDGF-R (Homo sapiens, UniProt P09619); assay: PDGF-R ELISA; assay type: cell-based
Text: A PDGF-R ELISA is described in International Patent Publication No. WO 96/40116, published December 19, 1996 by Tang et al.

MET = MET biochemical kinase assay; parameters: species or system human; concentration or dose not given beside the values
Method in brief: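 Capture ELISA: anti-rabbit Fc coat, rabbit anti-MET cytoplasmic domain pAb, lysate MET captured, washed. Compound + kinase buffer (ATP, divalent metals). Readout anti-pTyr-HRP/TMB, colorimetric.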

FLK-1 receptor = biological target: T1, FLK-1 receptor (Mus musculus, UniProt P35918); assay: FLK-1 ELISA (kinase activity of the FLK-1 receptor in FLK-1/NIH3T3 cells, VEGF stimulated); assay type: cell-based
T1 construct: expressed in transfected cells; host or cells: NIH3T3 C7#3
Procedure: An enzyme linked immunosorbent assay (ELISA) was conducted to measure the catalytic activity of the FLK-1 receptor and more specifically, the inhibition or activation of indolinone compounds on the catalytic activity of the FLK-1 receptor. Specifically, the following assay was conducted to measure catalytic activity of the FLK-1 receptor in FLK-1/NIH3T3 cells.
The materials and protocol for the FLK-1 ELISA assay are as described in International Patent Publication No. WO 96/40116, published December 19, 1996 by Tang et al.
Selected compounds were tested in the FLK-1 ELISA assay.
An ELISA assay was conducted to measure the kinase activity of the FLK-1 receptor and more specifically, the inhibition or activation of protein tyrosine kinase activity on the FLK-1 receptor. Specifically, the following assay was conducted to measure kinase activity of the FLK-1 receptor in FLK-1/NIH3T3 cells.
Materials. The following reagents and supplies were used: • a. […] Cappel goat anti-rabbit IgG (catalog no. 55641); • c. PBS (Gibco Catalog No. 450-1300EB); • d. TBSW Buffer (50 mM Tris (pH 7.2), 150 mM NaCl and 0.1% Tween-20); • e. Ethanolamine stock (10% ethanolamine (pH 7.0), stored at 4°C); • f. HNTG buffer (20mM HEPES buffer (pH 7.5), 150mM NaCl, 0.2% Triton X-100, and 10% glycerol); • g. EDTA (0.5 M (pH 7.0) as a 100X stock); • h. Sodium ortho vanadate (0.5 M as a 100X stock); • i. Sodium pyro phosphate (0.2M as a 100X stock); • j. NUNC 96 well V bottom polypropylene plates (Applied Scientific Catalog No. AS-72092); • k. NIH3T3 C7#3 Cells (FLK-1 expressing cells); • l. DMEM with 1X high glucose L Glutamine (catalog No. 11965-050); • m. FBS, Gibco (catalog no. 16000-028); • n. L-glutamine, Gibco (catalog no. 25030-016); • o. VEGF, PeproTech, Inc. (catalog no. 100-20)(kept as 1 µg/100 µl stock in Milli-Q dH2O and stored at -20°C; • p. Affinity purified anti-FLK-1 antiserum which can be obtained or purified as follows: • 1. Prepare a Tresyl-Activated Agarose/Flk-1-D column by incubating 10 ml of Tresyl-Activated Agarose with 20 mg of purified GST-Flk-1-D fusion protein in 100mM sodium bicarbonate (pH 9.6) buffer overnight at 4 °C. • 2. Wash the column once with PBS. • 3. Block the excess sites on the column with 2 M glycine for 2 hours at 4°C. • 4. Wash the column with PBS. • 5. Incubate the column with Rabbit anti-Flk-1D production bleed for 2 hours at 4 °C. • 6. Wash the column with PBS. • 7. Elute antiserum with 100 mM Citric Acid, pH3.0 and neutralize the eluate immediately with 2 M Tris, pH 9.0. • 8. Dialyize the eluate against PBS overnight at 4 °C with 3 changes of buffer (sample to buffer ratio is 1:100). • 9. Adjust the dialyized antiserum to 5% glycerol and store at -80 °C in small aliquotes. • q.
Protocol. The following protocol was used for conducting the assay: • 1. Coat Corning 96-well elisa plates with 1.0µg per well Cappel Anti-rabbit IgG antibody in 0.1M Na2CO3 pH 9.6. Bring final volume to 150 µl per well. Coat plates overnight at 4°C. Plates can be kept up to two weeks when stored at 4°C. • 2. Grow cells in Growth media(DMEM, supplemental with 2.0mM L-Glutamine, 10% FBS) in suitable culture dishes until confluent at 37°C, 5% CO2. • 3. Harvest cells by trypsinization and seed in Corning 25850 polystyrene 96-well roundbottom cell plates, 25.000 cells/well in 200µl of growth media. • 4. Grow cells at least one day at 37°C, 5% CO2. • 5. Wash cells with D-PBS 1X. • 6. Add 200µl/well of starvation media (DMEM, 2.0mM 1-Glutamine, 0.1% FBS). Incubate overnight at 37°C, 5% CO2. • 7. Dilute Compounds/Extracts 1:20 in polypropylene 96 well plates using starvation media. Dilute dimethylsulfoxide 1:20 for use in control wells. • 8. Remove starvation media from 96 well cell culture plates and add 162 µl of fresh starvation media to each well. • 9. Add 18µl of 1:20 diluted Compound/Extract dilution (from step 7) to each well plus the 1:20 dimethylsulfoxide dilution to the control wells (+/- VEGF), for a final dilution of 1:200 after cell stimulation. […]

T1 sequence (P35918 20-1345): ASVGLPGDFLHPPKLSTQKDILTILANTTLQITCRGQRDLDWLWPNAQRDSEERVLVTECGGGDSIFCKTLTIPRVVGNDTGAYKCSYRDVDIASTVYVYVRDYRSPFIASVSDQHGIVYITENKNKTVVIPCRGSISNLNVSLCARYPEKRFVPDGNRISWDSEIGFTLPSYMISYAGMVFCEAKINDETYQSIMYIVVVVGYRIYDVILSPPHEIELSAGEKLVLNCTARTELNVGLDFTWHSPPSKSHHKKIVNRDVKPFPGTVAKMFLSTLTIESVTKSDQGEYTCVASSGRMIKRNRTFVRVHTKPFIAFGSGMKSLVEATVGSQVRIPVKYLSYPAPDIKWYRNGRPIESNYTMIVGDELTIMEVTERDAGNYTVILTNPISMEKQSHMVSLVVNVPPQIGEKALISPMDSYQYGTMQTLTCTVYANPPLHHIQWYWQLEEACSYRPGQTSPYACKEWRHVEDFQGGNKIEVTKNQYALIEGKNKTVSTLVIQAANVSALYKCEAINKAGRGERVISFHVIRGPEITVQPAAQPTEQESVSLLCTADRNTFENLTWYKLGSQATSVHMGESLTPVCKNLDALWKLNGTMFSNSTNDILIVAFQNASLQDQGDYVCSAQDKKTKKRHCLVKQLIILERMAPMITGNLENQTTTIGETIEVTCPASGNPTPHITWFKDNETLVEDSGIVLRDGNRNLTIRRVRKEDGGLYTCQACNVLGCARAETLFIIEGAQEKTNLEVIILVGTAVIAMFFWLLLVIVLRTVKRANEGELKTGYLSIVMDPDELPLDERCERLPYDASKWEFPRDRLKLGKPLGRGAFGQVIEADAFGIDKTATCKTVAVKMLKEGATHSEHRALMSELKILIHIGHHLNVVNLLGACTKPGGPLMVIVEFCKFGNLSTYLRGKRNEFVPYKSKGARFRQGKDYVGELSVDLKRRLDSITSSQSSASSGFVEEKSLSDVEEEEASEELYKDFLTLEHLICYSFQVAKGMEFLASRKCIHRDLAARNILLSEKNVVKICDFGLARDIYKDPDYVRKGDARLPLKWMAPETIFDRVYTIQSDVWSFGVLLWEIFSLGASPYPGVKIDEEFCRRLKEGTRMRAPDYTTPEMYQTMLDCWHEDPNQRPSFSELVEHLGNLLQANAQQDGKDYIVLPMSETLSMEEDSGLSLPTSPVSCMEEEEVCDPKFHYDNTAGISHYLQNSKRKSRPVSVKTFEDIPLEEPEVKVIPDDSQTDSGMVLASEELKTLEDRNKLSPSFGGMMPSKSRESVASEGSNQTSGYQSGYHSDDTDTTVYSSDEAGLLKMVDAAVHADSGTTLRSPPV
Sequence of PDGF-R (P09619 33-1106, species assumed): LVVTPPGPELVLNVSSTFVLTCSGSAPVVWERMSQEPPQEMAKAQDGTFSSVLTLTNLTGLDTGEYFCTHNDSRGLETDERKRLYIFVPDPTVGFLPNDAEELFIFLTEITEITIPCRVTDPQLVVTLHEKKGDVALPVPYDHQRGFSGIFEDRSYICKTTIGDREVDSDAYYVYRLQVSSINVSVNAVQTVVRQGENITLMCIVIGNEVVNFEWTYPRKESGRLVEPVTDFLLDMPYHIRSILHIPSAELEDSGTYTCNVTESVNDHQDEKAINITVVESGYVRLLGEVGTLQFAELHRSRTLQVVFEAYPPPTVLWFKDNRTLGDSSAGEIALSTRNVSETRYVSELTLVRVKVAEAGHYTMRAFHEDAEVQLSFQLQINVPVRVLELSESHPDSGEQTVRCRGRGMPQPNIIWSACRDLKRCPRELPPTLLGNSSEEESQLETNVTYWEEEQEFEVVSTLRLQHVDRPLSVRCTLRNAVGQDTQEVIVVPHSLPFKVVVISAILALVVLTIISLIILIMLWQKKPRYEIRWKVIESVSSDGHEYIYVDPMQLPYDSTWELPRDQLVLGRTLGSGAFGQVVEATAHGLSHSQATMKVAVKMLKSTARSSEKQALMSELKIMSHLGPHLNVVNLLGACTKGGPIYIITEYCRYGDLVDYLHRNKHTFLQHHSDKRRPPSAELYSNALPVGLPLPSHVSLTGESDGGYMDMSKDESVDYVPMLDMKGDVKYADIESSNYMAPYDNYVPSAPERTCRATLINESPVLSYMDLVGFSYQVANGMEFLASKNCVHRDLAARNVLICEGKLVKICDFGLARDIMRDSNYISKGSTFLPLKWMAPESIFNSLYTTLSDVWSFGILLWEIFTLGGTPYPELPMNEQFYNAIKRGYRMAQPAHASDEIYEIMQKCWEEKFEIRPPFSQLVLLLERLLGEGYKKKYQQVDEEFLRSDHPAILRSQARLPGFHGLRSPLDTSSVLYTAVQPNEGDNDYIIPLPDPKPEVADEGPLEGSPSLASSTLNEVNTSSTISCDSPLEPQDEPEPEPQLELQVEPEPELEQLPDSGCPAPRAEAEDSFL

Cc1c(Br)ccc2c1C(=Cc1cc(C(C)(C)C)c(OCc3ccccc3)c(C(C)(C)C)c1)C(=O)N2 [10733/C05]
PDGF Kinase %Inhibition (PDGF-R): 11.1%
Met Kinase % Inhibition (MET): 23.2%
Fik Kinase %Inhibition (FLK-1 receptor): 11.5%

Cc1cc(C=C2C(=O)Nc3ccc(Br)c(C)c32)cc(C)c1OCc1ccccc1 [10733/C07]
PDGF Kinase %Inhibition (PDGF-R): 4.6%
Met Kinase % Inhibition (MET): 10.2%
Fik Kinase %Inhibition (FLK-1 receptor): 1.2%

COc1c(C(C)(C)C)cc(C=C2C(=O)Nc3c(Br)cc(Br)cc32)cc1C(C)(C)C [10733/A04]
PDGF Kinase %Inhibition (PDGF-R): -14.1%
Met Kinase % Inhibition (MET): 24.0%
Fik Kinase %Inhibition (FLK-1 receptor): -11.2%

COc1c(O)ccc(C=C2C(=O)Nc3ccc(I)cc32)c1[N+](=O)[O-] [10733/B11]
PDGF Kinase %Inhibition (PDGF-R): 23.7%
Met Kinase % Inhibition (MET): 36.6%
Fik Kinase %Inhibition (FLK-1 receptor): 22.5%

COc1c(C(C)(C)C)cc(C=C2C(=O)Nc3ccc(I)cc32)cc1C(C)(C)C [10733/B04]
PDGF Kinase %Inhibition (PDGF-R): 24.9%
Met Kinase % Inhibition (MET): 56.3%
Fik Kinase %Inhibition (FLK-1 receptor): -3.3%

CNS(=O)(=O)c1ccc2c(c1)C(=Cc1cc(Br)cc(OC)c1O)C(=O)N2 [10733/D08]
PDGF Kinase %Inhibition (PDGF-R): 42.3%
Met Kinase % Inhibition (MET): 80.0%
Fik Kinase %Inhibition (FLK-1 receptor): -8.3%

CC(C)(C)c1cc(C=C2C(=O)Nc3ccc(I)cc32)cc(C(C)(C)C)c1OCc1ccccc1 [10733/B05]
PDGF Kinase %Inhibition (PDGF-R): 27.3%
Met Kinase % Inhibition (MET): 61.3%
Fik Kinase %Inhibition (FLK-1 receptor): -1.1%

CC(C)c1cc(C=C2C(=O)Nc3ccc(S(=O)(=O)N4CCOCC4)cc32)cc(C(C)C)c1Oc1ccccc1 [10732/F04]
PDGF Kinase %Inhibition (PDGF-R): 23.5%
Met Kinase % Inhibition (MET): 57.2%
Fik Kinase %Inhibition (FLK-1 receptor): 16.2%

COc1c(Br)cc(C=C2C(=O)Nc3ccc(S(=O)(=O)Nc4ccc(C(F)(F)F)cc4)cc32)cc1C(C)(C)C [10732/E07]
PDGF Kinase %Inhibition (PDGF-R): 42.2%
Met Kinase % Inhibition (MET): 15.2%
Fik Kinase %Inhibition (FLK-1 receptor): 21.3%

COc1c(O)ccc(C=C2C(=O)Nc3ccc(Br)c(C)c32)c1[N+](=O)[O-] [10733/C11]
PDGF Kinase %Inhibition (PDGF-R): 62.2%
Met Kinase % Inhibition (MET): 35.1%
Fik Kinase %Inhibition (FLK-1 receptor): 42.8%

CC(C)(C)c1cc(C=C2C(=O)Nc3ccc(S(=O)(=O)N4CCOCC4)cc32)ccc1OCc1ccccc1 [10732/F06]
PDGF Kinase %Inhibition (PDGF-R): 0.2%
Met Kinase % Inhibition (MET): 45.7%
Fik Kinase %Inhibition (FLK-1 receptor): 11.6%

CNS(=O)(=O)c1ccc2c(c1)C(=Cc1cc([N+](=O)[O-])c(OC)c(C(C)(C)C)c1)C(=O)N2 [10733/D03]
PDGF Kinase %Inhibition (PDGF-R): 40.7%
Met Kinase % Inhibition (MET): 32.8%
Fik Kinase %Inhibition (FLK-1 receptor): 33.2%

CC(C)(C)c1cc(C=C2C(=O)Nc3ccc(S(=O)(=O)Nc4ccc(C(F)(F)F)cc4)cc32)cc(I)c1OCc1ccccc1 [10733/E02]
PDGF Kinase %Inhibition (PDGF-R): 20.8%
Met Kinase % Inhibition (MET): 60.5%
Fik Kinase %Inhibition (FLK-1 receptor): 0.8%

COc1cc(Br)cc(C=C2C(=O)Nc3ccc(Br)c(C)c32)c1O [10733/C08]
PDGF Kinase %Inhibition (PDGF-R): -3.6%
Met Kinase % Inhibition (MET): 85.7%
Fik Kinase %Inhibition (FLK-1 receptor): -28.5%

COc1c([N+](=O)[O-])cc(C=C2C(=O)Nc3ccc(I)cc32)cc1C(C)(C)C [10733/B03]
PDGF Kinase %Inhibition (PDGF-R): 35.8%
Met Kinase % Inhibition (MET): 62.2%
Fik Kinase %Inhibition (FLK-1 receptor): 3.1%

COc1c(C)cc(C=C2C(=O)Nc3c(Br)cc(Br)cc32)cc1C [10733/A06]
PDGF Kinase %Inhibition (PDGF-R): -24.3%
Met Kinase % Inhibition (MET): 33.7%
Fik Kinase %Inhibition (FLK-1 receptor): -16.6%

COc1c(I)cc(C=C2C(=O)Nc3ccc(CCCl)cc32)cc1C(C)(C)C [10732/G11]
PDGF Kinase %Inhibition (PDGF-R): 38.6%
Met Kinase % Inhibition (MET): 63.0%
Fik Kinase %Inhibition (FLK-1 receptor): 10.9%

COc1ccc(C=C2C(=O)Nc3ccc(S(=O)(=O)N4CCOCC4)cc32)cc1C(C)(C)C [10732/F05]
PDGF Kinase %Inhibition (PDGF-R): 12.8%
Met Kinase % Inhibition (MET): 58.9%
Fik Kinase %Inhibition (FLK-1 receptor): 37.3%

COc1c(C)cc(C=C2C(=O)Nc3ccc(Br)c(C)c32)cc1C [10733/C06]
PDGF Kinase %Inhibition (PDGF-R): 20.0%
Met Kinase % Inhibition (MET): 4.1%
Fik Kinase %Inhibition (FLK-1 receptor): 4.7%

CNS(=O)(=O)c1ccc2c(c1)C(=Cc1cc([N+](=O)[O-])ccc1O)C(=O)N2 [10733/D10]
PDGF Kinase %Inhibition (PDGF-R): -10.1%
Met Kinase % Inhibition (MET): 22.8%
Fik Kinase %Inhibition (FLK-1 receptor): 2.9%

CNS(=O)(=O)c1ccc2c(c1)C(=Cc1ccc(Cl)c([N+](=O)[O-])c1)C(=O)N2 [10718/D08]
Met Kinase % Inhibition (MET): 2.3%
Fik Kinase %Inhibition (FLK-1 receptor): 3.9%

CNS(=O)(=O)c1ccc2c(c1)C(=Cc1ccc(O)c(C)c1O)C(=O)N2 [10718/D09]
Met Kinase % Inhibition (MET): 9.9%
Fik Kinase %Inhibition (FLK-1 receptor): -9.1%

CC(C)(C)c1cc(C=C2C(=O)Nc3ccc(S(=O)(=O)Nc4ccc(C(F)(F)F)cc4)cc32)cc(Cl)c1OCc1ccccc1 [10732/E10]
PDGF Kinase %Inhibition (PDGF-R): 35.6%
Met Kinase % Inhibition (MET): 1.6%
Fik Kinase %Inhibition (FLK-1 receptor): 16.7%

COc1cccc(O)c1C=C1C(=O)Nc2c(Br)cc(Br)cc21 [10717/A10]
Met Kinase % Inhibition (MET): 71.6%
Fik Kinase %Inhibition (FLK-1 receptor): -3.3%

CC(C)(C)c1cc(C=C2C(=O)Nc3c(Br)cc(Br)cc32)cc(C(C)(C)C)c1OCc1ccccc1 [10733/A05]
PDGF Kinase %Inhibition (PDGF-R): -4.0%
Met Kinase % Inhibition (MET): 18.2%
Fik Kinase %Inhibition (FLK-1 receptor): -23.3%

CNS(=O)(=O)c1ccc2c(c1)C(=Cc1ccc([N+](=O)[O-])o1)C(=O)N2 [10718/D11]
Met Kinase % Inhibition (MET): 11.3%
Fik Kinase %Inhibition (FLK-1 receptor): 13.3%

COc1c(C(C)C)cc(C=C2C(=O)Nc3ccc(CCCl)cc32)cc1C(C)C [10732/G03]
PDGF Kinase %Inhibition (PDGF-R): 36.1%
Met Kinase % Inhibition (MET): 38.1%
Fik Kinase %Inhibition (FLK-1 receptor): 0.8%

COc1c(C(C)C)cc(C=C2C(=O)Nc3ccc(S(=O)(=O)Nc4ccc(C(F)(F)F)cc4)cc32)cc1C(C)C [10732/E03]
PDGF Kinase %Inhibition (PDGF-R): 48.7%
Met Kinase % Inhibition (MET): 3.9%
Fik Kinase %Inhibition (FLK-1 receptor): 16.7%

COc1cc(Br)c(O)c(C=C2C(=O)Nc3ccc(S(=O)(=O)Nc4ccc(C(F)(F)F)cc4)cc32)c1 [10718/E03]
Met Kinase % Inhibition (MET): 95.3%
Fik Kinase %Inhibition (FLK-1 receptor): 10.0%

CNS(=O)(=O)c1ccc2c(c1)C(=Cc1ccco1)C(=O)N2 [10718/D10]
Met Kinase % Inhibition (MET): 55.3%
Fik Kinase %Inhibition (FLK-1 receptor): 15.0%

CCOC(=O)c1c(C)[nH]c(C=C2C(=O)Nc3ccc(S(=O)(=O)Nc4ccc(C(F)(F)F)cc4)cc32)c1C [10718/E02]
Met Kinase % Inhibition (MET): 46.3%
Fik Kinase %Inhibition (FLK-1 receptor): 19.7%

CNS(=O)(=O)c1ccc2c(c1)C(=Cc1c(C)[nH]c(C(=O)OC)c1C(=O)OC)C(=O)N2 [10718/D07]
Met Kinase % Inhibition (MET): 26.1%
Fik Kinase %Inhibition (FLK-1 receptor): 7.8%
